In ChEMBL document CHEMBL3991601, “The target landscape of clinical kinase drugs” (Science, 2017) one finds Kd data, which are given here for 14 molecules.

Activity calls are given as the source filed them. For most assays here, no stated cut-off is given here; in the data, actives have a measured Kd and inactives only a lower limit.

As a reminder, the Kd is a measure of binding affinity in units of concentration.

In assay [1] the target is Dual specificity mitogen-activated protein kinase kinase 1 (Homo sapiens, UniProt Q02750).
The target of assay [2] is T1, Serine/threonine-protein kinase D2 (Homo sapiens, UniProt Q9BZL6).
T1 sequence (Q9BZL6 whole entry): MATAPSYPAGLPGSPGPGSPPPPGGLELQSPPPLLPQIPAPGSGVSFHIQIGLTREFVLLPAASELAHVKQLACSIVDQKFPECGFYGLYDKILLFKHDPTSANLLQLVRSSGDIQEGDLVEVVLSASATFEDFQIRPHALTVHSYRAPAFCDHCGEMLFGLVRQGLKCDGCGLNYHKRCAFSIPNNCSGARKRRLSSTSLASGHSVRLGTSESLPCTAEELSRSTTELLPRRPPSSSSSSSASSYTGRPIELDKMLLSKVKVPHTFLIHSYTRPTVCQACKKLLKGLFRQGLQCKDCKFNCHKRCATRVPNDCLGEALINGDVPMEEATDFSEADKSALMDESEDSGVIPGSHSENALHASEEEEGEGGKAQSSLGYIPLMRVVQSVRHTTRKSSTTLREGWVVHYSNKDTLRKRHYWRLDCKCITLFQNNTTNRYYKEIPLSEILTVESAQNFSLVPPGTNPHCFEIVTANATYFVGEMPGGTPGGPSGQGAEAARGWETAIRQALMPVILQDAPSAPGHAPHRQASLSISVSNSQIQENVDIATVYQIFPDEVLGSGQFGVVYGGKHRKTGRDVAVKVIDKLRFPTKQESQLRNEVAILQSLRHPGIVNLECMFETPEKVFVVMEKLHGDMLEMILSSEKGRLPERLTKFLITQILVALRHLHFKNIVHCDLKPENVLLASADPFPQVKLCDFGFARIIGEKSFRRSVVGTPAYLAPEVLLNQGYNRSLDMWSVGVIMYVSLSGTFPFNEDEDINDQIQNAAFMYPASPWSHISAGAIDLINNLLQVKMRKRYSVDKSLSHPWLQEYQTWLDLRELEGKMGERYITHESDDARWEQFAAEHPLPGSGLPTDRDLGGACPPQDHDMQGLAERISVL

In a further assay the target is Deoxycytidine kinase (Homo sapiens, UniProt P27707).
The target in assay [3] is Adenylate kinase 2, mitochondrial (Homo sapiens, UniProt P54819).
The target of assay [4] is T2, Serine/threonine-protein kinase STK11 (Homo sapiens, UniProt Q15831).
T2 sequence (Q15831 whole entry): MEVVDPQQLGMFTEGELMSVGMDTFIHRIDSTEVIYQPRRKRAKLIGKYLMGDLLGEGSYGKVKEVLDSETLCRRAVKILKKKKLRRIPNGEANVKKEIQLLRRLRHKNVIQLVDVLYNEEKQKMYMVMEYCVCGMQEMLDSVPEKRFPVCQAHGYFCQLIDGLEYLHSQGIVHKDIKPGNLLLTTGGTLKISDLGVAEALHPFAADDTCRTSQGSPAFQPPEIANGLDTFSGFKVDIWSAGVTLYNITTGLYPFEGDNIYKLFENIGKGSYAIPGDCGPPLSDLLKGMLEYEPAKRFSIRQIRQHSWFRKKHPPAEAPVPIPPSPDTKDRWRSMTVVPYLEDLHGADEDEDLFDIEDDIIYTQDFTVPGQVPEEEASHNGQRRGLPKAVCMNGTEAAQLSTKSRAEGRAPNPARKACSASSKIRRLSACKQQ

Assay [5] has as its target Ribosomal protein S6 kinase alpha-6 (Homo sapiens, UniProt Q9UK32).
The target in assay [6] is T3, Breakpoint cluster region protein (Homo sapiens, UniProt P11274).
T3 sequence (P11274 whole entry): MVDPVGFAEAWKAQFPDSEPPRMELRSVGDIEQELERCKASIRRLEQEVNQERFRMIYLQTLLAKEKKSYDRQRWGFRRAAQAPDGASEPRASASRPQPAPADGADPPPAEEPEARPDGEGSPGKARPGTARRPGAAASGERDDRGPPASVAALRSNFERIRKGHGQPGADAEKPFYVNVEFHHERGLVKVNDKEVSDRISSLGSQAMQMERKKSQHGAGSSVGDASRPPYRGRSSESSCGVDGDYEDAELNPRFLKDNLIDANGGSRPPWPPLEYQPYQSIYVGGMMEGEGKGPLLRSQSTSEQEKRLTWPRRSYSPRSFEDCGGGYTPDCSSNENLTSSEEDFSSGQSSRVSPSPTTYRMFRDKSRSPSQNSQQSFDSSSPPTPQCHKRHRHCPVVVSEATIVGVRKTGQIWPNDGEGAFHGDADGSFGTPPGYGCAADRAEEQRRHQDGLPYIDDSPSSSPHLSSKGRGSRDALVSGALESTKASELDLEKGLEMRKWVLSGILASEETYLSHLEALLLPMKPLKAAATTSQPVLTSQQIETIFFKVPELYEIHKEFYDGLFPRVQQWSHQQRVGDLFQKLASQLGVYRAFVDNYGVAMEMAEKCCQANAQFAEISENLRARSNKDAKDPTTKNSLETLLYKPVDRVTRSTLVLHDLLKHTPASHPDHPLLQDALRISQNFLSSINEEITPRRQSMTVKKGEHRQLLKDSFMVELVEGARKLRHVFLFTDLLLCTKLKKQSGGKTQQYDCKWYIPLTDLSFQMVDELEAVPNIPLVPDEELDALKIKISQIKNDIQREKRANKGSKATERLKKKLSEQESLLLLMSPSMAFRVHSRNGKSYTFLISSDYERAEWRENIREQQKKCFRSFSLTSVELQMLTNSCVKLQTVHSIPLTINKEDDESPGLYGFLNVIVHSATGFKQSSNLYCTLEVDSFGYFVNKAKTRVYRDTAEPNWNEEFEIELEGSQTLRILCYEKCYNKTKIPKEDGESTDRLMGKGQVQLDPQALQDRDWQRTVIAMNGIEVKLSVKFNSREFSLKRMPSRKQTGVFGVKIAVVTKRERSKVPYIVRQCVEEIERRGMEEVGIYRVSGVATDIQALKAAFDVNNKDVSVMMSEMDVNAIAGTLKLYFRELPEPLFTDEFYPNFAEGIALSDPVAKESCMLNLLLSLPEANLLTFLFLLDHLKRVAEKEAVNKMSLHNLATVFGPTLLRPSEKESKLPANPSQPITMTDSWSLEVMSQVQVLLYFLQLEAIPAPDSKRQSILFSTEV

Deoxycytidine kinase, sequence (P27707 whole entry): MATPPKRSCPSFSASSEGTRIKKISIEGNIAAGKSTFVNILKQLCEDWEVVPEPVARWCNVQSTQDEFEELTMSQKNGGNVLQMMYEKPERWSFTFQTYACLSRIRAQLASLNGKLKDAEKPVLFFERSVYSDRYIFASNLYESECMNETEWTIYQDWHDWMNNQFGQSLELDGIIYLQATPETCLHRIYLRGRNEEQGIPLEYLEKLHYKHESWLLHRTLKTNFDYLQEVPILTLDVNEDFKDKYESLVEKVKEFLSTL
Ribosomal protein S6 kinase alpha-6, sequence (Q9UK32 whole entry): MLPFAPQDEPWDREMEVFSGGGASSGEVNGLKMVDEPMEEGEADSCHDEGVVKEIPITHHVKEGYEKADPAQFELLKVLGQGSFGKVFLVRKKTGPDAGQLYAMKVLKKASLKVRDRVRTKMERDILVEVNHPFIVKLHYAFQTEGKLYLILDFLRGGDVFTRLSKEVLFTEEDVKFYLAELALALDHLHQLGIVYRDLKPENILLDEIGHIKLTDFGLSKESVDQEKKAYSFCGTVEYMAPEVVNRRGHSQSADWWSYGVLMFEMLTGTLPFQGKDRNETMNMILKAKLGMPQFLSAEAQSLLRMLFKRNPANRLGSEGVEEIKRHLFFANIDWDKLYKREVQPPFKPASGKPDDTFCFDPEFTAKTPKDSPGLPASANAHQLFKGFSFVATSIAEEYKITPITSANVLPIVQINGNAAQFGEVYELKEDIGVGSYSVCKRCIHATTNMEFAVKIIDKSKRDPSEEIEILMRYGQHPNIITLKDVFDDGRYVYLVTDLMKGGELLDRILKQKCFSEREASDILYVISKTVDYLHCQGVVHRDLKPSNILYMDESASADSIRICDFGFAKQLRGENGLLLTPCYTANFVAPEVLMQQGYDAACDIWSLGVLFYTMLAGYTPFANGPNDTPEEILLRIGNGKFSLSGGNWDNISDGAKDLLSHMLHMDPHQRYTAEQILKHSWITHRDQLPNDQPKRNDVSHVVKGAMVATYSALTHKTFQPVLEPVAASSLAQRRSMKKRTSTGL
Dual specificity mitogen-activated protein kinase kinase 1, sequence (Q02750 whole entry): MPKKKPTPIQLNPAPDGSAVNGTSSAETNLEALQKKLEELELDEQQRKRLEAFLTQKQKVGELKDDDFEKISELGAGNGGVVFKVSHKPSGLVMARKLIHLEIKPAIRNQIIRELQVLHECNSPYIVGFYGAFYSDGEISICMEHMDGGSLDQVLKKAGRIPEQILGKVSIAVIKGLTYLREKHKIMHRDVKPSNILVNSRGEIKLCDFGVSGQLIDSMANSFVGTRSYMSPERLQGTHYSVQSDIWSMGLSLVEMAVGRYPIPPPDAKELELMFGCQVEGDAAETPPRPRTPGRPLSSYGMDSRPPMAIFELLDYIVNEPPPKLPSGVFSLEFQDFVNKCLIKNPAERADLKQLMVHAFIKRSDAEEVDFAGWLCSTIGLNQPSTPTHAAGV

Regarding `CC[C@@H]1C(=O)N(C)c2cnc(Nc3ccc(C(=O)N[C@H]4CC[C@H](N5CCN(CC6CC6)CC5)CC4)cc3OC)nc2N1C(C)C` [VOLASERTIB], the Kd (in assay [1]; in assay [2]; on Deoxycytidine kinase; in assay [3]; in assay [4]; in assay [5]) was > 30 µM (inactive) in each case. In addition, the Kd in assay [6] was > 30 µM (inactive).

Take `Cc1ccc(S(=O)(=O)Nc2nc3ccccc3nc2Nc2ccc3nsnc3c2)cc1`: the Kd (in assay [1]; in assay [2]; at Deoxycytidine kinase; in assay [3]; in assay [4]; in assay [5]) was > 30 µM (inactive) each time. Further, in assay [6], the Kd is > 30 µM (inactive).

For `Cn1cc(-c2ccc(F)c(C(F)(F)F)c2)nc1C1CCN(c2ncnc3[nH]ncc23)CC1` [LY-2584702], the Kd (in assay [1]; in assay [2]; at Deoxycytidine kinase; in assay [3]; in assay [4]; in assay [5]) was > 30 µM (inactive) throughout. Further, the Kd in assay [6] is > 30 µM (inactive).

Turning to `COc1cc(OC)c(/C=C/S(=O)(=O)Cc2ccc(OC)c(NCC(=O)O)c2)c(OC)c1` [RIGOSERTIB], the Kd (in assay [1]; in assay [2]; on Deoxycytidine kinase; in assay [3]; in assay [4]; in assay [5]) was > 30 µM (inactive) in each case. Moreover, the Kd in assay [6] was > 30 µM (inactive).

As for `CO[C@H]1C[C@@H]2CC[C@@H](C)[C@@](O)(O2)C(=O)C(=O)N2CCCC[C@H]2C(=O)O[C@H]([C@H](C)C[C@@H]2CC[C@@H](OCCO)[C@H](OC)C2)CC(=O)[C@H](C)/C=C(\C)[C@@H](O)[C@@H](OC)C(=O)[C@H](C)C[C@H](C)/C=C/C=C/C=C/1C` [EVEROLIMUS], the Kd (in assay [1]; in assay [2]; on Deoxycytidine kinase; in assay [3]; in assay [4]; in assay [5]) was > 30 µM (inactive) throughout. The Kd in assay [6] is > 30 µM (inactive).

On to `CCCS(=O)(=O)Nc1ccc(F)c(C(=O)c2c[nH]c3ncc(-c4ccc(Cl)cc4)cc23)c1F` [VEMURAFENIB], for which the Kd (in assay [1]; in assay [2]; at Deoxycytidine kinase; in assay [3]; in assay [4]; in assay [5]) was > 30 µM (inactive) in each case. The Kd in assay [6] is > 30 µM (inactive).

Take `O=C(Nc1ccc(-c2ccnc(Nc3ccc(N4CCOCC4)cc3)n2)cc1)C1CCCN1` (configuration not stated) [XL-019]: the Kd in assay [1] was > 30 µM (inactive); in assay [2] it was 66.9 µM (active); at Deoxycytidine kinase, > 30 µM (inactive); in assay [3] it was > 30 µM (inactive); in assay [4], > 30 µM (inactive); in assay [5], > 30 µM (inactive). The Kd in assay [6] was > 30 µM (inactive).

In the case of `CNC(=O)CN1CCC(Oc2cc3c(Nc4cccc(Cl)c4F)ncnc3cc2OC)CC1` [SAPITINIB], the Kd (in assay [1]; in assay [2]; on Deoxycytidine kinase; in assay [3]; in assay [4]; in assay [5]) was > 30 µM (inactive) each time. For the same molecule, the Kd in assay [6] was > 30 µM (inactive).

With `COC(=O)N[C@@H](C)CNc1nccc(-c2cn(C(C)C)nc2-c2cc(Cl)cc(NS(C)(=O)=O)c2F)n1` [ENCORAFENIB], the Kd (in assay [1]; in assay [2]; at Deoxycytidine kinase; in assay [3]; in assay [4]; in assay [5]) was > 30 µM (inactive) throughout. In assay [6], the Kd is > 30 µM (inactive).

Consider `CNC(=O)c1ccc(-c2cnc3ncc(Cc4ccc5ncccc5c4)n3n2)cc1F` [CAPMATINIB], for which the Kd (in assay [1]; in assay [2]; at Deoxycytidine kinase; in assay [3]; in assay [4]; in assay [5]) was > 30 µM (inactive) each time. Moreover, the Kd in assay [6] is > 30 µM (inactive).

With `CCS(=O)(=O)N1CC(CC#N)(n2cc(-c3ncnc4[nH]ccc34)cn2)C1` [BARICITINIB], the Kd (in assay [1]; in assay [2]; on Deoxycytidine kinase; in assay [3]; in assay [4]; in assay [5]) was > 30 µM (inactive) in each case. Further, the Kd in assay [6] was > 30 µM (inactive).

`COc1ccc(-c2ccc3c(N4CCOC[C@@H]4C)nc(N4CCOC[C@@H]4C)nc3n2)cc1CO` [AZD-8055]: the Kd (in assay [1]; in assay [2]; on Deoxycytidine kinase; in assay [3]; in assay [4]; in assay [5]) was > 30 µM (inactive) throughout. Further, in assay [6], the Kd is > 30 µM (inactive).

For the molecule `O=C(O)[C@]1(Cc2cccc(Nc3nccs3)n2)CC[C@@H](Oc2cccc(Cl)c2F)CC1` [MK-5108], the Kd (in assay [1]; in assay [2]; on Deoxycytidine kinase; in assay [3]; in assay [4]; in assay [5]) was > 30 µM (inactive) in each case. Further, in assay [6], the Kd was 0.011 µM (active).

As for `C[C@@H](Nc1cc(F)cc(F)c1)c1cc(C(=O)N(C)C)cc2c(=O)cc(N3CCOCC3)oc12` [AZD-8186], the Kd (in assay [1]; in assay [2]; on Deoxycytidine kinase; in assay [4]; in assay [5]; in assay [6]) was > 30 µM (inactive) throughout.
